According to patent publication US11058772B2, “(Bacterio)chlorophyll photosensitizers for treatment of eye diseases and disorders” (Yeda Research and Development Co. Ltd., priority 2011, dated 2021):

How the values were obtained:
rabbit cornea [1] = experiment: Stress-strain measurements of ex-vivo treated corneas; settings: for Mean Young's Modulus Intensity / Mean ultimate stress Intensity: 30 min incubation then 30 min illumination (NIR for WST11, UVA for RF-D); for Mean Young's Modulus Intensity / Mean ultimate stress Intensity / Mean Young's Modulus Increase % / Mean ultimate stress Increase %: dipotassium salt; for Mean Young's Modulus Increase % / Mean ultimate stress Increase %: 30 min incubation, 30 min NIR, vs untreated fellow eyes
Method: Eyes of rabbits (15-16 weeks old, weighting 3-4 Kg) were enucleated post mortem. Before enucleation, the 12 and 6 h position were marked on the sclera for preservation of subsequent cutting orientation. The corneas were de-epithelialized mechanically using a PKR scraper (Becton Dickenson, USA). Usually, about 10 rabbits were assigned to bacteriochlorophyll/NIR treatment, herein the “test group” (for example WST11/NIR), and 2 rabbits were treated by RF/UVA (herein the “RF/UVA group”) for comparison. In the test group, 10 eyes of 10 rabbits were immersed upside down for 30 minutes in test compound saline solution (Bchl-S) followed by NIR illumination (600-900 nm) with a diode laser at 10 mW/cm^2 for 30 minutes. The untreated contralateral eyes served as controls. In the RF/UVA group, RF-D solution was topically applied on 2 eyes of 2 rabbits, every 10 minutes, for 30 minutes, followed by UVA irradiation at 370 nm by a double diode at 3 mW/cm^2, for 30 minutes. After treatment, the corneo-scleral rings were removed and placed on paraffin hemisphere buttons with a matching shape to establish accurate sectioning without tissue stretching. […] The strips included 2 mm of sclera on both ends. Central corneal thickness was measured by ultrasonic pachymetry (Humphrey ultrasonic pachymeter, USA). The corneal strips were then transferred to the biomechanical tester.
(§1) The corneal and scleral strips were clamped horizontally, at a distance of 6 mm, between the jaws of a microcomputer-controlled biomaterial tester (Minimat, Germany) with a 200 Newton force cell (FIG. 1). Controlled tightening of screws was performed with a calibrated screwdriver at a preset torque of 9 cN.m (Torqueleader, England). The strain was increased linearly at a rate of 1.0 mm/min and was measured up to tissue rupture. Young's modulus was calculated by the testing machine. Ultimate stress and Young's modulus were expressed in Mega Pascal (MPa) units.
Stress-strain measurements were conducted in 12 rabbits as described in Materials and Methods. Briefly, 10 eyes of 10 rabbits were treated by WST11/NIR, and 2 eyes of 2 rabbits were treated by RF-D/UVA. The contralateral eyes served as control.

rabbit cornea [2] = experiment: Stress-strain measurements of in-vivo treated corneas
Method: Twelve to twenty five weeks old rabbits (2.5-3 Kg weight) were used. They were anesthetized by intramuscular (i.m.) injection of 35 mg/kg ketamine (Rhone Merieux, Lyon, France) and 5 mg/kg xylazine (Vitamed, Binyamina, Israel). Usually, 16 rabbits were assigned for bacteriochlorophyll treatment. After de-epithelialization, one eye of each rabbit was treated topically with a test compound in saline for 10, 20 and 30 minutes using an eye cap (12 mm in diameter), followed by NIR illumination for 10, 20 or 30 minutes (755 nm, 10 mW/cm^2). The other eye served as untreated control. To prevent exposure of the limbal stem cells, the illuminated area was restricted by an aluminum foil mask with an 8 mm diameter central opening. To determine the role of dextran, 12 rabbits were divided into 4 treatment groups of 3 rabbits each: group 1, the Bchl-S group, was treated with a saline solution of a bacteriochlorophyll derivative; group 2, the Bchl-D group, treated with a bacteriochlorophyll-dextran solution. Both groups were incubated with the test compound for 20-min, followed by NIR illumination (755 nm, 10 mW/cm^2) for 30 minutes. Group 3, the RF group, was treated with riboflavin without dextran, and group 4, the RF-D group was treated with RF-dextran solution (RF-D). Both groups were incubated with RF or RF-D solutions for 30-minute, followed by UVA illumination (370 nm, 3 mW/cm^2) for 30 minutes. An ophthalmic ointment containing dexamethasone 0.1%, neomycin and polymixin B (Maxitrol®, Alcon, Belgium) was applied on the treated eyes once daily for two weeks. Four weeks after the treatment the rabbits were sacrificed, and the corneoscleral rings were removed and placed on paraffin hemisphere buttons of matching shape to assure accurate sectioning without stretching the tissue. Corneal strips, 4±0.2 mm in width, were cut from the epithelial side, as described above in the ex-vivo section. The corneal strips were transferred to the biomechanical tester without delay.
as §1
Corneas of 16 live rabbits were pretreated for 10 (n=4), 20 (n=6) and 30 (n=6) minutes with WST11-S (2.5 mg/ml). NIR illumination (755 nm, 10 mW/cm^2) was then delivered for 30 minutes. […] Results are shown in FIGS. 9A-9B, and in Tables 1 and 2.
To determine the role of dextran, the photochemical treatment with a formulation of WST11 2.5 mg/ml containing 20% dextran T-500 (WST11-D) was examined. Six rabbits were examined: 3 rabbits were pretreated for 20 min with WST11-S solution and 3 with WST11-D solution, followed by NIR illumination for 30 minutes. Additional 4 rabbits were treated with RF (n=2) or RF-D (n=2) for 30 minutes, followed by 30-min UVA irradiation (370 nm, 3 mW/cm^2).

rabbit sclera = experiment: Biomechanical testing of rabbit sclera treated ex vivo, external NIR illumination; settings: 2.5 mg/ml 30 min, external NIR 30 min
Method: The opposite side of the sclera served as control. Scleral strips, 4 mm in width, were cut at the equatorial treated area and the opposite sclera, and stress-strain measurements were performed using a biomaterial tester.
as §1
Stress-strain tests of sclera of enucleated rabbits' eyes were performed following treatment with WST11 (2.5 mg/ml) as described in Materials and Methods. After photosensitizer impregnation, the sclera was illuminated by applying the laser beam directly onto the treated area (external illumination), using a flat optical fiber that run along a curved plastic or metal glide as shown in FIG. 17A. Strips of the sclera were cut and tested.

[3] = 20 min pretreatment, saline or 20% dextran T-500 formulation, 30 min NIR
[4] = 30 days, 30 min incubation, 30 min NIR, vs untreated fellow eyes, dipotassium salt
[5] = 30 days, 30 min incubation, 30 min NIR, vs untreated fellow eyes, listed as WST11-S, dipotassium salt
[6] = one month, 10 min incubation, 30 min NIR
[7] = one month, 20 min incubation, 30 min NIR

CCC1C2=Cc3c(C)c(C(=O)NCCS(=O)(=O)[O-])c4[n]3[Pd][n]3c(c(C)c(C(C)=O)c3=CC(=N2)C1C)=CC1=NC(=C4CC(=O)OC)C(CCC(=O)[O-])C1C.[K+].[K+] (stereo not shown) [WST11, Palladium 3^1-oxo-15-methoxycarbonylmethyl-rhodobacteriochlorin 13^1-(2-sulfoethyl)amide dipotassium salt]
Mean Young's Modulus Intensity (rabbit cornea [1]): 17.65 ± 8.25 MPa
Mean ultimate stress Intensity (rabbit cornea [1]): 5.98 ± 2.11 MPa
Mean Young's Modulus Intensity (rabbit cornea [1]; listed as WST11-S): 17.65 MPa
Mean ultimate stress Intensity (rabbit cornea [1]; listed as WST11-S): 5.98 MPa
Mean Young's Modulus Increase % (rabbit cornea [1]): 410%
Mean ultimate stress Increase % (rabbit cornea [1]): 286%
Mean Young's Modulus Increase % (rabbit cornea [1]; listed as WST11-S): 369%
Mean ultimate stress Increase % (rabbit cornea [1]; listed as WST11-S): 267%
increase in the corneal stiffness (rabbit cornea [1]; 30 min pre-incubation then NIR, vs untreated control eyes): ~3 fold
increase in Young's modulus compared with untreated corneas of fellow eyes (rabbit cornea [2]; [3]): approximately two-fold increase
increase in mean ultimate stress compared with untreated corneas of fellow eyes (rabbit cornea [2]; [3]): approximately two-fold increase
Mean Young's Modulus Intensity (rabbit cornea [2]; 30 days, 30 min incubation 2.5 mg/ml, 30 min NIR): 32 ± 3.6 MPa
Mean ultimate stress Intensity (rabbit cornea [2]; 30 days, 30 min incubation 2.5 mg/ml, 30 min NIR 755 nm 10 mW/cm^2): 6.91 ± 0.53 MPa
Mean Young's Modulus Increase % (rabbit cornea [2]; [4]): 174%
Mean ultimate stress Increase % (rabbit cornea [2]; [4]): 111%
Mean Young's Modulus Increase % (rabbit cornea [2]; [5]): 173%
Mean ultimate stress Increase % (rabbit cornea [2]; [5]): 126%
Mean Young's Modulus Intensity (rabbit cornea [2]; [6]): 13.9 ± 3.9 MPa
Mean ultimate stress Increase % (rabbit cornea [2]; [6]): 45%
Mean ultimate stress Intensity (rabbit cornea [2]; [6]): 4.51 ± 1.85 MPa
Mean Young's Modulus Increase % (rabbit cornea [2]; one month, 10 min incubation, 30 min NIR, dipotassium salt): 9%
Mean Young's Modulus Increase % (rabbit cornea [2]; one month, 10 min incubation, 30 min NIR, listed as WST11-S, dipotassium salt): 10%
Mean Young's Modulus Increase % (rabbit cornea [2]; [7]): 79%
Mean Young's Modulus Intensity (rabbit cornea [2]; [7]): 22.7 ± 3.82 MPa
Mean ultimate stress Increase % (rabbit cornea [2]; [7]): 113%
Mean ultimate stress Intensity (rabbit cornea [2]; [7]): 6.66 ± 0.67 MPa
mean maximal stress (rabbit sclera; control 2.77±0.99): 7.6±0.99 MPa
mean Young's modulus (rabbit sclera; control 15.2±7.5): 45.6±3.9 MPa
